Experimental data taken from the NIST ThermoML archive (doi:10.1016/j.jct.2008.11.012).
Numbers after ± are expanded uncertainties.

Experiments:
[1] = 101 kPa, Liquid; for viscosity: Concentric cylinders viscometry; for mass density: Vibrating tube method
[2] = xn = mol fraction of the nth substance listed; conditions: 101 kPa, Liquid, x2 = 0; for viscosity: Concentric cylinders viscometry; for mass density: Vibrating tube method

Row | Structure (SMILES) | viscosity ([1]; 293.15 K) [mPa·s] | mass density ([1]; 293.15 K) [kg/m3] | viscosity ([1]; 303.15 K) [mPa·s] | mass density ([1]; 303.15 K) [kg/m3] | viscosity ([1]; 313.15 K) [mPa·s] | mass density ([1]; 313.15 K) [kg/m3] | viscosity ([1]; 323.15 K) [mPa·s] | mass density ([1]; 323.15 K) [kg/m3] | viscosity ([1]; 333.15 K) [mPa·s] | mass density ([1]; 333.15 K) [kg/m3] | viscosity ([1]; 343.15 K) [mPa·s] | mass density ([1]; 343.15 K) [kg/m3] | viscosity ([1]; 353.15 K) [mPa·s] | mass density ([1]; 353.15 K) [kg/m3] | viscosity ([1]; 363.15 K) [mPa·s] | mass density ([1]; 363.15 K) [kg/m3] | further results
1 | NCCNCCN [di(2-aminoethyl)amine] | 7.038 ± 0.28 | 951 ± 1 | 4.804 ± 0.19 | 942.3 ± 1 | 3.4 ± 0.14 | 933.8 ± 1 | 2.695 ± 0.11 | 925.5 ± 1 | 2.109 ± 0.086 | 917 ± 1 | 1.703 ± 0.069 | 908.9 ± 1 | 1.409 ± 0.057 | 900.4 ± 1 | 1.19 ± 0.049 | 891.9 ± 1 | –
2 | O [water] | 1.006 ± 0.041 | 999.2 ± 1 | 0.7988 ± 0.033 | 996.5 ± 1 | 0.6546 ± 0.027 | 993 ± 1 | 0.5427 ± 0.023 | 988.7 ± 1 | 0.4596 ± 0.019 | 983.7 ± 1 | 0.4271 ± 0.018 | 978.3 ± 1 | 0.3731 ± 0.016 | 972.3 ± 1 | 0.2983 ± 0.013 | 965.9 ± 1 | –
3 | O [water] + NCCNCCN | – | – | – | – | – | – | – | – | – | – | – | – | – | – | – | – | viscosity ([2]; 293.15 K): 1.006 ± 0.041 mPa·s; mass density ([2]; 293.15 K): 999.2 ± 1 kg/m3; viscosity ([2]; 303.15 K): 0.7988 ± 0.033 mPa·s; mass density ([2]; 303.15 K): 996.5 ± 1 kg/m3; viscosity ([2]; 313.15 K): 0.6546 ± 0.027 mPa·s; mass density ([2]; 313.15 K): 993 ± 1 kg/m3; viscosity ([2]; 323.15 K): 0.5427 ± 0.023 mPa·s; mass density ([2]; 323.15 K): 988.7 ± 1 kg/m3; viscosity ([2]; 333.15 K): 0.4596 ± 0.019 mPa·s; mass density ([2]; 333.15 K): 983.7 ± 1 kg/m3; viscosity ([2]; 343.15 K): 0.4271 ± 0.018 mPa·s; mass density ([2]; 343.15 K): 978.3 ± 1 kg/m3; viscosity ([2]; 353.15 K): 0.3731 ± 0.016 mPa·s; mass density ([2]; 353.15 K): 972.3 ± 1 kg/m3; viscosity ([2]; 363.15 K): 0.2983 ± 0.013 mPa·s; mass density ([2]; 363.15 K): 965.9 ± 1 kg/m3
